Laboratory results published in patent publication US11344510B2, “Arylcyclohexylamine derivatives and their use in the treatment of psychiatric disorders” (Gilgamesh Pharmaceuticals, Inc., priority 2019, dated 2022).
pKi: −log10 of the molar value.

Tests used:
[1] = target: T1, norepinephrine transporter (NET) (Homo sapiens, UniProt P23975); experiment: Fluorescent substrate uptake inhibition, NET; format: cell-based; details: 10 μM, HEK293 cells expressing NET
T1 construct: expressed in transfected cells; host or cells: HEK293
Experimental: (§1) Uptake Inhibition. The ability of test compounds to block monoamine uptake by SERT, NET, DAT, and VMAT2 was determined using the Neurotransmitter Transporter Uptake Assay Kit manufactured by Molecular Devices (Cat #R8173). Briefly, stably transfected cells expressing the MAT of interest (HEK293 cells for SERT and NET; CHO cells for DAT) were grown and plated into 384-well plates at a concentration of 20,000 cells per well. Plates were then incubated for 16-20 h at 37° C. and 5% CO2. The medium was then aspirated and replaced with 25 μL of assay buffer (20 mM HEPES in HBSS, containing 0.1% BSA) containing the test compounds at the appropriate concentrations. Plates were then centrifuged at 300 rpm for 15 s and then incubated at 37° C. for 30 minutes. At this time, 25 μL of the proprietary fluorescent dye solution was added, the plates were incubated at 37° C. for 60 minutes, and then fluorescence was quantified on a plate reader (excitation wavelength=440 nm, emission wavelength=520 nm). The proprietary dye solution contains a mixture of 1) a fluorescent dye that mimics the endogenous substrates of MATs and is thereby actively transported to the intracellular compartment in the absence of an inhibitor and 2) a masking dye that inhibits the fluorescence of dye 1 in the extracellular compartment. Therefore, the overall fluorescence of the system increases as the fluorescent dye is transported into the cells.

[2] = target: T2, serotonin transporter (SERT) (Homo sapiens, UniProt P31645); experiment: Fluorescent substrate uptake inhibition, SERT; format: cell-based; details: 10 μM, HEK293 cells expressing SERT
T2 construct: expressed in transfected cells; host or cells: HEK293
Experimental: as §1

[3] = target: MK-801 binding site of the N-methyl-D-aspartate receptor (NMDAR); experiment: NMDAR radioligand binding with [3H]MK-801, Method B; parameters: species or system Sprague Dawley rat; details: MK-801 site, Method B, male Sprague Dawley rat cortex, 5.0 nM [3H]MK-801; read-out: NMDAR Ki ± SEM
Experimental: Radioligand Binding—Method B. Affinity of the test compounds for NMDAR was determined in radioligand binding experiments with [^3H]MK-801 by WuXi AppTec (Hong Kong) Limited, under the conditions described in Table 13.

[4] = HLM stability (High Activity); format: in vitro ADME; details: both sexes, human, liver microsomes, pH 7.4, Condition 2 (High Activity), 1.0 mg protein/mL
Experimental: (§2) HLM Stability (High Activity). Pooled HLM from adult male and female donors (XenoTech H0630) were used. Microsomal incubations were carried out in 96-well plates in 5 aliquots of 40 μL, each (one for each time point). Liver microsomal incubation medium consisted of PBS (100 mM, pH 7.4), MgCl2 (3.3 mM), NADPH (3 mM), glucose-6-phosphate (5.3 mM), and glucose-6-phosphate dehydrogenase (0.67 units/mL), with 1.0 mg of liver microsomal protein per mL. Control incubations were performed by replacing the NADPH-cofactor system with PBS. Test compounds (1 μM, final solvent concentration 1.6%) were incubated with microsomes at 37° C., shaking at 100 rpm. Incubations were performed in duplicate. Five time points over 60 minutes were analyzed. The reactions were stopped by adding 12 volumes of 90% acetonitrile-water to incubation aliquots, followed by protein sedimentation by centrifugation at 5500 rpm for 3 minutes. Supernatants were analyzed for parent compound remaining using a fit-for-purpose liquid chromatography-tandem mass spectrometry (LC-MS/MS) method, with authentic samples of each analyte used for identity confirmation.
(§3) Data Analysis. The elimination constant (kel), half-life (t1/2) and intrinsic clearance (Clint) were determined in a plot of […] versus time, using linear regression analysis.

[5] = target: T3, dopamine transporter (DAT) (Homo sapiens, UniProt Q01959); experiment: Fluorescent substrate uptake inhibition, DAT; format: cell-based; details: 10 μM, CHO cells expressing DAT
T3 construct: expressed in transfected cells; host or cells: CHO (uptake)
Experimental: as §1

[6] = MLM stability (High Activity); format: in vitro ADME, BALB/c mice; details: male, BALB/c, mouse, liver microsomes, pH 7.4, Condition 2 (High Activity), 1.0 mg protein/mL
Experimental: as §2, with “MLM” for “HLM”, “from” for “from adult”, “BALB/c mice” for “and female donors”, “M3000)” for “H0630)”, “μL” for “μL,”, “9” for “12”
as §3

[7] = target: T4, vesicular monoamine transporter 2 (VMAT2) (Homo sapiens, UniProt Q05940); experiment: Fluorescent substrate uptake inhibition, VMAT2; format: cell-based; details: 10 μM, transfected cells
T4 construct: expressed in transfected cells
Experimental: as §1

[8] = RLM stability (High Activity); format: in vitro ADME, Sprague Dawley rats; details: male, Sprague Dawley, rat, liver microsomes, pH 7.4, Condition 2 (High Activity), 1 μM, 1.0 mg protein/mL
Experimental: as §2, with “RLM” for “HLM”, “from” for “from adult”, “Sprague Dawley rats” for “and female donors”, “R1000, lot #1910100)” for “H0630)”, “μL” for “μL,”, “9” for “12”
as §3

[9] = target: MK-801 binding site of the N-methyl-D-aspartate receptor (NMDAR); experiment: NMDAR radioligand binding with [3H]MK-801, Method A; parameters: species or system Wistar rat; details: MK-801 site, Method A, Wistar rat brain (minus cerebellum), 5.0 nM [3H]MK-801; read-out: NMDAR Ki ± SEM
Experimental: Radioligand Binding—Method A. Affinity of the test compounds for NMDAR was determined in radioligand binding experiments with [^3H]MK-801 by Eurofins Panlabs, Inc., using methods adapted from the literature (Javitt et al. 1987; Reynolds et al. 1989) and under the conditions described in Table 12.

[10] = HLM stability (Low Activity); format: in vitro ADME; details: both sexes, human, liver microsomes, pH 7.4, Condition 1 (Low Activity), 0.42 mg protein/mL
Experimental: For some of the compounds, stability was tested under two microsomal incubation conditions, one with normal enzymatic activity (low activity) and one with higher enzymatic loading, longer incubation time, and lower compound concentration (high activity) intended to increase metabolic lability.
as §2, with “Stability (Low” for “Stability (High”, “with 0.42” for “with 1.0”, “compounds (2” for “compounds (1”, “over 40” for “over 60”
as §3

T4 sequence (Q05940 whole entry, species assumed): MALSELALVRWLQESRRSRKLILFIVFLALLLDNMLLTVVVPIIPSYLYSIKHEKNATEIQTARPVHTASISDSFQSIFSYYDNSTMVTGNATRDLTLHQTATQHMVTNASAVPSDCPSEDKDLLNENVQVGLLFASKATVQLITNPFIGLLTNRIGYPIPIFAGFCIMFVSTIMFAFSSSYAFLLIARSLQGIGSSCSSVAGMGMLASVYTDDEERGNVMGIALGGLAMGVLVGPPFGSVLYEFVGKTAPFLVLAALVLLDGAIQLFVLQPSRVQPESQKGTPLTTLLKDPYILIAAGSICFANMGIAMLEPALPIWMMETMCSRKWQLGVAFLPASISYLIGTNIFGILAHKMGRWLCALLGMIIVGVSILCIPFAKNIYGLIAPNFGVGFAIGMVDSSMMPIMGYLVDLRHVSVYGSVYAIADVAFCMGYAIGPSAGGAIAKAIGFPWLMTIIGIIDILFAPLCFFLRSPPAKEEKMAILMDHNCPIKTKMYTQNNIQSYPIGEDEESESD
T3 sequence (Q01959 whole entry, species assumed): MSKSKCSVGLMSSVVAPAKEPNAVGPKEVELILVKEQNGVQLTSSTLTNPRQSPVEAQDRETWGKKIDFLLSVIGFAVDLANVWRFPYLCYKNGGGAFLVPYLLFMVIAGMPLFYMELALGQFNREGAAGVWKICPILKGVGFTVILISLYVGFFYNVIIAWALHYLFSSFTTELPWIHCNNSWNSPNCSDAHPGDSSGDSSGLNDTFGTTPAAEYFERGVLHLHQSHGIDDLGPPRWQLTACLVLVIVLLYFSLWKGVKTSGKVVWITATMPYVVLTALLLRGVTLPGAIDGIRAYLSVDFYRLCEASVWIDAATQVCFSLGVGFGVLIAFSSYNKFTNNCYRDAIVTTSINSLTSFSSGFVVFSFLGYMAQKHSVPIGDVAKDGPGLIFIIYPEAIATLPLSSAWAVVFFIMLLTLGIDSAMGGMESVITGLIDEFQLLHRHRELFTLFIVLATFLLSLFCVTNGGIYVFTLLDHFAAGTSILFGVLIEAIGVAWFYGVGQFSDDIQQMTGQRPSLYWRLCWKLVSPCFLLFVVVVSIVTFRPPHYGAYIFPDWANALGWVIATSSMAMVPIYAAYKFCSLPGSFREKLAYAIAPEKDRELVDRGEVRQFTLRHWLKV
T2 sequence (P31645 whole entry, species assumed): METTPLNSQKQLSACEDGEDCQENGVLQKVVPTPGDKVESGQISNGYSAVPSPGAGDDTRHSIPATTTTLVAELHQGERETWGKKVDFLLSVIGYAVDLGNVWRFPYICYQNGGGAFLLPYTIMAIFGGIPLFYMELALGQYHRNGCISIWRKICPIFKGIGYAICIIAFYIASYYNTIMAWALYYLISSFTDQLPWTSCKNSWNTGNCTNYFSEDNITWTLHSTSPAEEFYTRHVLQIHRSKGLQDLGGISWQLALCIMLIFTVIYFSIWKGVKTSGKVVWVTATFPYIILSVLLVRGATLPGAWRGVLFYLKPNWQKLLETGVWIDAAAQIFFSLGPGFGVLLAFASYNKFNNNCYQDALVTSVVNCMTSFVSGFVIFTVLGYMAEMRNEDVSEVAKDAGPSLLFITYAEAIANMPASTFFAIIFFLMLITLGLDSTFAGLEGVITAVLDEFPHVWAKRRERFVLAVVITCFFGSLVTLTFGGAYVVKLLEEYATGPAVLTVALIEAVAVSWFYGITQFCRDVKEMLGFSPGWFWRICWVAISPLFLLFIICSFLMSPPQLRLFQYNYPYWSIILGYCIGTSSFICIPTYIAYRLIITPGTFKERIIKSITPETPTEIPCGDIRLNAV
T1 sequence (P23975 whole entry, species assumed): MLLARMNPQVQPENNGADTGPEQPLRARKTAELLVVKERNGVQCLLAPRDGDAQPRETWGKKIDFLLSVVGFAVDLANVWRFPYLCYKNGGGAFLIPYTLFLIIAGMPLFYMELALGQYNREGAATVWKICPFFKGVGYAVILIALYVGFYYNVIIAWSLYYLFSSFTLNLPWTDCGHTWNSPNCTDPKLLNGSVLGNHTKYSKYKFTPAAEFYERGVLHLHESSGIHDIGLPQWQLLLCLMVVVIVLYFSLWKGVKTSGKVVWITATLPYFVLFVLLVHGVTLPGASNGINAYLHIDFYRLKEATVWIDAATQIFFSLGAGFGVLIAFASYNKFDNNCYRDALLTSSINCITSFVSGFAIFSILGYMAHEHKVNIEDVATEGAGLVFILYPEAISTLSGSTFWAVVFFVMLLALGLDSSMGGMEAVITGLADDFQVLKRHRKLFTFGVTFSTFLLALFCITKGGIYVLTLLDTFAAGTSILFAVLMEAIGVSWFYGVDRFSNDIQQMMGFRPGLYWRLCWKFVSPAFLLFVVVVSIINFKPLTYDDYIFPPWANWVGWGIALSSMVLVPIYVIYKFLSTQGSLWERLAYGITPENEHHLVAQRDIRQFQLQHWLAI

In the case of `CN[C@@]1(c2cccc(F)c2)CCCCC1=O` [Compound 19R, (R)-2-(3-fluorophenyl)-2-(methylamino)cyclohexan-1-one], the inhibition at 10 µM [1] was 8.8%, the inhibition at 10 µM [2] was 20.9% and the pKi [3] was 5.17. It also gave a half-life at 1 μM [4] of 2.27 h, a microsomal CLint at 1 μM [4] of 5 µL/min/mg and an inhibition at 10 µM [5] of -10.7%. It also gave a half-life at 1 μM [6] of 0.998 h, a microsomal CLint at 1 μM [6] of 12 µL/min/mg and an inhibition at 10 µM [7] of 11%. The half-life at 1 μM [8] was 0.195 h and the microsomal CLint at 1 μM [8] was 59 µL/min/mg.
In the case of `NC1(c2ccccc2)CCCCC1=O` (racemic) [Compound 11rac, 2-amino-2-phenyl-cyclohexan-1-one], the pKi [9] was 5.85, the half-life at 1 μM [4] was 8.9 h and the microsomal CLint at 1 μM [4] was 1 µL/min/mg. The half-life at 2 μM [10] was 13.4 h and the microsomal CLint at 2 μM [10] was 2 µL/min/mg.
Work on `CNC1(c2cccc(OC)c2)CCCCC1=O` (racemic) [Compound 3rac] yielded a pKi [9] of 6.00, a half-life at 1 μM [4] of 2.5 h and a microsomal CLint at 1 μM [4] of 5 µL/min/mg. It also gave a half-life at 2 μM [10] of 1.46 h and a microsomal CLint at 2 μM [10] of 19 µL/min/mg.
`CCNC1(c2ccccc2)CCCCC1=O` (racemic) [Compound 1rac] gave a pKi [9] of 6.52, a half-life at 1 μM [4] of 4.98 h and a microsomal CLint at 1 μM [4] of 2 µL/min/mg. For the same molecule, the half-life at 2 μM [10] was 2.22 h and the microsomal CLint at 2 μM [10] was 13 µL/min/mg.
`NC1(c2ccccc2Cl)CCCCC1=O` (racemic) [Compound 78rac] gave a pKi [9] of 5.40, a half-life at 1 μM [4] of 3.03 h and a microsomal CLint at 1 μM [4] of 4 µL/min/mg. For the same molecule, the half-life at 2 μM [10] was 4.28 h and the microsomal CLint at 2 μM [10] was 7 µL/min/mg.
